In test [1] the test system is N. gonorrheae (ATCC 49226). In words: Antibacterial activity (MIC), Gram-negative type strain. It counts as cell-based, Neisseria gonorrhoeae. Particulars: Table 13; for MIC: Neisseria gonorrhoeae, ATCC49226.
The test system of test [2] is S. aureus (ATCC 29213). In words: Antibacterial activity (MIC), Gram-positive type strain. The test is classed as cell-based, Staphylococcus aureus. The settings on record: Table 13; for MIC: Staphylococcus aureus, ATCC29213.
Test [3] concerns E. faecalis (ATCC 29212). Described as above. The settings on record: Table 13; for MIC: Enterococcus faecalis, ATCC29212. The test is classed as cell-based, Enteroccocus faecalis.
Test [4] has as its system H. influenzae (ATCC 49247). In words: Antibacterial activity (MIC), Gram-negative type strain. The test is classed as cell-based, Haemophilus influenzae. Particulars: Table 13; for MIC: Haemophilus influenzae, ATCC49247.

Converted amounts (≈) assume the structure as drawn. Bounds are passed on as bounds.

For `CCNC(=O)Nc1nc2cc(-c3cnc(NS(=O)(=O)NC)nc3)cc(-c3ccc(C)cn3)c2s1` [Compound A-42, 1-ethyl-3-[7-(5-methyl-2-pyridyl)-5-[2-(methylsulfamoylamino)pyrimidin-5-yl]-1,3-benzothiazol-2-yl]urea], the MIC was at most 0.008 µg/mL in test [1], 0.06 µg/mL (≈ 0.12 µM) in test [2], at most 0.008 µg/mL in test [3] and 0.03 µg/mL (≈ 0.0602 µM) in test [4].
For the compound `CCNC(=O)Nc1nc2cc(-c3cnc(NS(=O)(=O)N4CC[C@@H](N(C)C)C4)nc3)cc(-c3ccc(C)cn3)c2s1` [Compound A-57, (R)-3-(dimethylamino)-N-(5-(2-(3-ethylureido)-7-(5-methylpyridin-2-yl)benzo[d]thiazol-5-yl)pyrimidin-2-yl)pyrrolidine-1-sulfonamide], the MIC in test [1] amounted to 0.12 µg/mL (≈ 0.206 µM); in test [2], 0.25 µg/mL (≈ 0.43 µM); in test [3], 0.03 µg/mL (≈ 0.0516 µM); in test [4], 0.5 µg/mL (≈ 0.86 µM).
For `CCNC(=O)Nc1nc2cc(-c3cnc(NS(=O)(=O)N4CC[C@H](O)C4)nc3)cc(-c3ccc(C)cn3)c2s1` [Compound A-60, (S)—N-(5-(2-(3-ethylureido)-7-(5-methylpyridin-2-yl)benzo[d]thiazol-5-yl)pyrimidin-2-yl)-3-hydroxypyrrolidine-1-sulfonamide] the same measures were at most 0.008 µg/mL, 0.12 µg/mL (≈ 0.216 µM), 0.06 µg/mL (≈ 0.108 µM) and 0.03 µg/mL (≈ 0.0541 µM).
For `CCNC(=O)Nc1nc2cc(-c3cnc(NS(C)(=O)=O)nc3)cc(-c3ccccn3)c2s1` [Compound A-31, N-(5-(2-(3-ethylureido)-7-(pyridin-2-yl)benzo[d]thiazol-5-yl)pyrimidin-2-yl)methanesulfonamide] the same measures were 0.03 µg/mL (≈ 0.0639 µM), 2 µg/mL (≈ 4.26 µM), 0.03 µg/mL (≈ 0.0639 µM) and 0.015 µg/mL (≈ 0.0319 µM).
With “N-(5-(2-(3-ethylureido)-7-(pyridin-2-yl)benzo[d]thiazol-5-yl)pyrimidin-2-yl)morpholine-4-sulfonamide [Compound A-43]”, the “MIC vs. N. gonorrheae (ATCC 49226)” value in test [1] is “<=0.008 μg/ml”. For the same compound, in test [2], the “MIC vs. S. aureus (ATCC 29213)” value was 0.12 µg/mL. For the same compound, the “MIC vs. E. faecalis (ATCC 29212)” value in test [3] is “<=0.008 μg/ml”. Also, the “MIC vs. H. influenzae (ATCC 49247)” value in test [4] is 0.03 µg/mL.
With `CCNC(=O)Nc1nc2cc(-c3cnc(NS(=O)(=O)N4CCC(O)C4)nc3)cc(-c3ccc(C)cn3)c2s1` (stereo not shown) [Compound A-54, N-(5-(2-(3-ethylureido)-7-(5-methylpyridin-2-yl)benzo[d]thiazol-5-yl)pyrimidin-2-yl)-3-hydroxypyrrolidine-1-sulfonamide], the MIC in test [1] is at most 0.008 µg/mL; in test [2], 0.12 µg/mL (≈ 0.216 µM); in test [3], at most 0.008 µg/mL; in test [4], 0.03 µg/mL (≈ 0.0541 µM).
Consider `CCNC(=O)Nc1nc2cc(-c3cnc(NS(=O)(=O)CCN4CCOCC4)nc3)cc(-c3ccc(C)cn3)c2s1` [Compound A-52, N-(5-(2-(3-ethylureido)-7-(5-methylpyridin-2-yl)benzo[d]thiazol-5-yl)pyrimidin-2-yl)-2-morpholinoethanesulfonamide], for which the MIC in test [1] worked out at 0.03 µg/mL (≈ 0.0515 µM); in test [2], 0.5 µg/mL (≈ 0.858 µM); in test [3], 0.12 µg/mL (≈ 0.206 µM); in test [4] it was 0.12 µg/mL (≈ 0.206 µM).
`CCNC(=O)Nc1nc2cc(-c3cnc(NS(=O)(=O)CC)nc3)cc(-c3ccc(C)cn3)c2s1` [Compound A-47, N-(5-(2-(3-ethylureido)-7-(5-methylpyridin-2-yl)benzo[d]thiazol-5-yl)pyrimidin-2-yl)ethanesulfonamide]: the MIC is at most 0.008 µg/mL in test [1], 0.015 µg/mL (≈ 0.0301 µM) in test [2], at most 0.008 µg/mL in test [3] and at most 0.008 µg/mL in test [4].
Turning to `CCCS(=O)(=O)Nc1ncc(-c2cc(-c3ccccn3)c3sc(NC(=O)NCC)nc3c2)cn1` [Compound A-33, N-(5-(2-(3-ethylureido)-7-(pyridin-2-yl)benzo[d]thiazol-5-yl)pyrimidin-2-yl)propane-1-sulfonamide], the MIC in test [1] was determined as 0.03 µg/mL (≈ 0.0603 µM); in test [2], 0.25 µg/mL (≈ 0.502 µM); in test [3], 0.03 µg/mL (≈ 0.0603 µM); in test [4], 0.12 µg/mL (≈ 0.241 µM).
For the compound `CCNC(=O)Nc1nc2cc(-c3cnc(NS(=O)(=O)C[C@@H](N)Cc4ccccc4)nc3)cc(-c3ccc(C)cn3)c2s1` [Compound A-46, (S)-2-amino-N-(5-(2-(3-ethylureido)-7-(5-methylpyridin-2-yl)benzo[d]thiazol-5-yl)pyrimidin-2-yl)-3-phenylpropane-1-sulfonamide], the MIC was 0.06 µg/mL (≈ 0.0995 µM) in test [1], 1 µg/mL (≈ 1.66 µM) in test [2], 0.25 µg/mL (≈ 0.415 µM) in test [3] and 2 µg/mL (≈ 3.32 µM) in test [4].
`CCNC(=O)Nc1nc2cc(-c3ccc(N4CCCS4(=O)=O)nc3)cc(-c3ccccn3)c2s1` [Compound A-25, 1-[5-[6-(1,1-dioxo-1,2-thiazolidin-2-yl)-3-pyridyl]-7-(2-pyridyl)-1,3-benzothiazol-2-yl]-3-ethylurea]: the MIC worked out at 0.5 µg/mL (≈ 1.01 µM) in test [1], 0.06 µg/mL (≈ 0.121 µM) in test [2], 0.06 µg/mL (≈ 0.121 µM) in test [3] and 1 µg/mL (≈ 2.02 µM) in test [4].
Consider `CCNC(=O)Nc1nc2cc(-c3cnc(NS(=O)(=O)NC)nc3)cc(-c3ccccn3)c2s1` [Compound A-41, 1-ethyl-3-[5-[2-(methylsulfamoylamino)pyrimidin-5-yl]-7-(2-pyridyl)-1,3-benzothiazol-2-yl]urea], for which the MIC in test [1] is 0.015 µg/mL (≈ 0.031 µM); in test [2] it was 0.5 µg/mL (≈ 1.03 µM); in test [3] it was at most 0.008 µg/mL; in test [4], 0.06 µg/mL (≈ 0.124 µM).
For the compound “N-(5-(2-(3-ethylureido)-7-(5-methylpyridin-2-yl)benzo[d]thiazol-5-yl)pyrimidin-2-yl)-N-methylmethanesulfonamide [Compound A-29]”, the “MIC vs. N. gonorrheae (ATCC 49226)” value in test [1] amounted to 0.25 µg/mL. The “MIC vs. S. aureus (ATCC 29213)” value in test [2] stood at 0.25 µg/mL. Further, the “MIC vs. E. faecalis (ATCC 29212)” value in test [3] was 0.06 µg/mL. Also, the “MIC vs. H. influenzae (ATCC 49247)” value in test [4] came out at 2 µg/mL.
As for `CCNC(=O)Nc1nc2cc(-c3cnc(NS(=O)(=O)NCC)nc3)cc(-c3ccc(C)cn3)c2s1` [Compound A-39, 1-ethyl-3-[5-[2-(ethylsulfamoylamino)pyrimidin-5-yl]-7-(5-methyl-2-pyridyl)-1,3-benzothiazol-2-yl]urea], the MIC in test [1] was 0.015 µg/mL (≈ 0.0293 µM); in test [2] it was 0.015 µg/mL (≈ 0.0293 µM); in test [3] it was at most 0.008 µg/mL; in test [4], 0.03 µg/mL (≈ 0.0585 µM).
Take `CCNC(=O)Nc1nc2cc(-c3cnc(N4CCCCS4(=O)=O)nc3)cc(-c3ccccn3)c2s1` [Compound A-24, 1-(5-(2-(1,1-dioxido-1,2-thiazinan-2-yl)pyrimidin-5-yl)-7-(pyridin-2-yl)benzo[d]thiazol-2-yl)-3-ethyl-urea]: the MIC was determined as 0.12 µg/mL (≈ 0.235 µM) in test [1], 0.06 µg/mL (≈ 0.118 µM) in test [2], 0.03 µg/mL (≈ 0.0589 µM) in test [3] and 0.5 µg/mL (≈ 0.981 µM) in test [4].
For `CCNC(=O)Nc1nc2cc(-c3cnc(NS(=O)(=O)N4CC[C@@H](O)C4)nc3)cc(-c3ccc(C)cn3)c2s1` [Compound A-59, (R)—N-(5-(2-(3-ethylureido)-7-(5-methylpyridin-2-yl)benzo[d]thiazol-5-yl)pyrimidin-2-yl)-3-hydroxypyrrolidine-1-sulfonamide], the MIC turned out to be 0.015 µg/mL (≈ 0.027 µM) in test [1], 0.12 µg/mL (≈ 0.216 µM) in test [2], 0.015 µg/mL (≈ 0.027 µM) in test [3] and 0.03 µg/mL (≈ 0.0541 µM) in test [4].
In the case of `CCNC(=O)Nc1nc2cc(-c3cnc(NS(=O)(=O)N(C)C)nc3)cc(-c3ccccn3)c2s1` [Compound A-32, 1-[5-[2-(dimethylsulfamoylamino)pyrimidin-5-yl]-7-(2-pyridyl)-1,3-benzothiazol-2-yl]-3-ethyl urea], the MIC in test [1] turned out to be 0.03 µg/mL (≈ 0.0602 µM); in test [2], 0.12 µg/mL (≈ 0.241 µM); in test [3] it was 0.015 µg/mL (≈ 0.0301 µM); in test [4] it was 0.015 µg/mL (≈ 0.0301 µM).
In the case of `CCNC(=O)Nc1nc2cc(-c3cnc(NS(C)(=O)=O)nc3)cc(-c3ccc(C)cn3)c2s1` [Compound A-30, N-(5-(2-(3-ethylureido)-7-(5-methylpyridin-2-yl)benzo[d]thiazol-5-yl)pyrimidin-2-yl)methanesulfonamide], the MIC in test [1] is at most 0.008 µg/mL; in test [2] it was 0.06 µg/mL (≈ 0.124 µM); in test [3] it was at most 0.008 µg/mL; in test [4], 0.008 µg/mL (≈ 0.0165 µM).
Regarding `CCNC(=O)Nc1nc2cc(-c3cnc(NS(=O)(=O)N(C)C)nc3)cc(-c3ccc(C)cn3)c2s1` [Compound A-38, 1-[5-[2-(dimethylsulfamoylamino)pyrimidin-5-yl]-7-(5-methyl-2-pyridyl)-1,3-benzothiazol-2-yl]-3-ethyl urea], the MIC in test [1] was at most 0.008 µg/mL; in test [2], 0.015 µg/mL (≈ 0.0293 µM); in test [3], at most 0.008 µg/mL; in test [4] it was 0.03 µg/mL (≈ 0.0585 µM).
With `CCNC(=O)Nc1nc2cc(-c3cnc(NS(=O)(=O)C4(CO)CC4)nc3)cc(-c3ccc(C)cn3)c2s1` [Compound A-55, N-(5-(2-(3-ethylureido)-7-(5-methylpyridin-2-yl)benzo[d]thiazol-5-yl)pyrimidin-2-yl)-1-(hydroxymethyl)cyclopropane-1-sulfonamide], the MIC in test [1] is at most 0.008 µg/mL; in test [2], 0.12 µg/mL (≈ 0.222 µM); in test [3], at most 0.008 µg/mL; in test [4], 0.03 µg/mL (≈ 0.0556 µM).
Take `CCNC(=O)Nc1nc2cc(-c3cnc(NS(=O)(=O)C(C)(C)C)nc3)c(F)cc2s1` [Compound A-61, N-(5-(2-(3-ethylureido)-6-fluorobenzo[d]thiazol-5-yl)pyrimidin-2-yl)-2-methylpropane-2-sulfonamide]: the MIC stood at 0.25 µg/mL (≈ 0.552 µM) in test [1], 0.06 µg/mL (≈ 0.133 µM) in test [2], 0.06 µg/mL (≈ 0.133 µM) in test [3] and 0.12 µg/mL (≈ 0.265 µM) in test [4].
Turning to `CCNC(=O)Nc1nc2cc(-c3cnc(N4CCCS4(=O)=O)nc3)cc(-c3ccc(C)cn3)c2s1` [Compound A-28, 1-(5-(2-(1,1-dioxidoisothiazolidin-2-yl)pyrimidin-5-yl)-7-(5-methylpyridin-2-yl)benzo[d]thiazol-2-yl)-3-ethylurea], the MIC was 0.03 µg/mL (≈ 0.0589 µM) in test [1], 0.03 µg/mL (≈ 0.0589 µM) in test [2], 0.015 µg/mL (≈ 0.0294 µM) in test [3] and 0.12 µg/mL (≈ 0.235 µM) in test [4].

The record behind these values is patent US20170007615A1, “Antibacterial Compounds” (priority 2014, published 2017).
